In patent publication US7462600B2, “Macrolides” (Pfizer Inc, priority 2004, dated 2008):
In brackets after ≈: the same amount, converted by molar mass. Like-named read-outs stand apart in the source and are kept apart here.

How the values were obtained:
Type in all cases: cell-based
[1] = tested on: Streptococcus pyogenes 1079; test: MIC, microtiter broth dilution (NCCLS M100-S14), S. pyogenes 1079 (ermB)
Experimental: (§1) The assay described herein includes a panel of bacterial strains assembled to include a variety of target pathogenic species, including representatives of macrolide resistance mechanisms that have been characterized. In many cases, both the macrolide-susceptible parent strain and the macrolide-resistant strain derived from it are available to provide a more accurate assessment of the compound's ability to circumvent the resistance mechanism. The assay is performed in microtiter trays and interpreted according to Performance Standards for Antimicrobial Susceptibility Testing; 14th Informational Supplement (M100-S14), published by The National Committee for Clinical Laboratory Standards (NCCLS) guidelines; the MIC is used to compare strains. Compounds are initially dissolved in DMSO as 40 mg/ml stock solutions.

[2] = tested on: Streptococcus pneumoniae 1016; test: MIC, microtiter broth dilution (NCCLS M100-S14), S. pneumoniae 1016 (susceptible)
Experimental: as §1

[3] = tested on: Haemophilus influenzae 1218; test: MIC, microtiter broth dilution (NCCLS M100-S14), H. influenzae 1218 (susceptible); details: Haemophilus influenzae 1218
Experimental: as §1

[4] = tested on: Streptococcus pneumoniae 1175; details: microtiter broth dilution
Experimental: as §1

[5] = tested on: Streptococcus pneumoniae 1095; details: microtiter broth dilution
Experimental: as §1

[6] = S. pneumoniae 1016 (susceptible)

| SMILES | MIC S. pyogenes 1079 ([1]; Streptococcus pyogenes 1079) | MIC S. pneumo. 1016 ([2]; Streptococcus pneumoniae 1016) | MIC H. influenzae 1218 [3] | MIC S. pneumo. 1175 ([4]; S. pneumoniae 1175 (mefA)) | MIC S. pneumo. 1095 ([5]; S. pneumoniae 1095 (ermB)) | MIC S. pyogenes 1079 ([1]; S. pyogenes 1079 (ermB)) | MIC S. pneumo. 1016 [2, 6] | MIC S. pneumo. 1175 ([4]; Streptococcus pneumoniae 1175) | MIC S. pneumo. 1095 ([5]; Streptococcus pneumoniae 1095) |
| --- | --- | --- | --- | --- | --- | --- | --- | --- | --- |
| CCC1OC(=O)C(C)C(=O)C(C)C(OC2OC(C)CC(N(C)C)C2O)C(C)(OC)CC(C)C(=O)C(C)C2N(C3CN(Cc4c(F)cccc4F)C3)C(=O)OC12C (centres unmarked) [Example 1.87, 3-descladinosyl-11,12-dideoxy-6-O-methyl-3-oxo-12,11-(oxycarbonyl-(1-(1,3-difluorobenzene-2-methyl)-azetidin-3-yl)-imino)erythromycin A] | 8 µg/mL (≈ 10.1 µM) | <0.063 µg/mL | 0.5 µg/mL (≈ 0.63 µM) | – | – | – | – | – | – |
| CC[C@H]1OC(=O)[C@H](C)C(=O)[C@H](C)[C@@H](O[C@@H]2O[C@H](C)C[C@H](N(C)C)[C@H]2O)[C@](C)(OC)C[C@@H](C)C(=O)[C@H](C)[C@H]2N(CC3(C)CN(C(=O)c4ccc5cccnc5c4)C3)C(=O)O[C@]12C.O=CO [6.16] | – | – | – | 0.12 µg/mL | 0.12 µg/mL | >64.00 µg/mL | <0.06 µg/mL | – | – |
| CCC1OC(=O)C(C)C(=O)C(C)C(OC2OC(C)CC(N(C)C)C2O)C(C)(OC)CC(C)C(=O)C(C)C2N(C3CN(Cc4c(F)cccc4OC)C3)C(=O)OC12C (centres unmarked) [Example 1.85, 3-descladinosyl-11,12-dideoxy-6-O-methyl-3-oxo-12,11-(oxycarbonyl-(1-(1-fluoro-3-methoxybenzene-2-methyl)-azetidin-3-yl)-imino)-erythromycin A] | 16 µg/mL (≈ 19.9 µM) | <0.063 µg/mL | 2 µg/mL (≈ 2.48 µM) | – | – | – | – | – | – |
| CC[C@H]1OC(=O)[C@H](C)C(=O)[C@H](C)[C@@H](O[C@@H]2O[C@H](C)C[C@H](N(C)C)[C@H]2O)[C@](C)(OC)C[C@@H](C)C(=O)[C@H](C)[C@H]2N(CC3(C)CN(C(=O)c4cccc5cccnc45)C3)C(=O)O[C@]12C.O=CO [6.17] | – | – | – | 0.12 µg/mL | >64.00 µg/mL | >64.00 µg/mL | <0.06 µg/mL | – | – |
| CCC1OC(=O)C(C)C(=O)C(C)C(OC2OC(C)CC(N(C)C)C2O)C(C)(OC)CC(C)C(=O)C(C)C2N(C3CN(Cc4ccc(F)c(F)c4)C3)C(=O)OC12C (centres unmarked) [Example 1.08, 3,4-difluorobenzyl] | >64.00 µg/mL | <0.06 µg/mL | – | – | – | – | – | 0.25 µg/mL (≈ 0.315 µM) | 0.5 µg/mL (≈ 0.63 µM) |
| CC[C@H]1OC(=O)[C@H](C)C(=O)[C@H](C)[C@@H](O[C@@H]2O[C@H](C)C[C@H](N(C)C)[C@H]2O)[C@](C)(OC)C[C@@H](C)C(=O)[C@H](C)[C@H]2N(CC3(C)CN(C(=O)c4nc5ccccc5[nH]4)C3)C(=O)O[C@]12C.O=CO [6.18] | – | – | – | 0.25 µg/mL | 0.25 µg/mL | >64.00 µg/mL | <0.06 µg/mL | – | – |
| CCC1OC(=O)C(C)C(=O)C(C)C(OC2OC(C)CC(N(C)C)C2O)C(C)(OC)CC(C)C(=O)C(C)C2N(C3CN(C(COC)c4ccnc5ncccc45)C3)C(=O)OC12C (stereo not drawn) [Example 1.81, 3-descladinosyl-11,12-dideoxy-4-O-methyl-3-oxo-12,11-(oxycarbonyl-(1-(2-(methoxy)-1R-(1,8-napthyridin-4-yl)-ethyl)-azetidin-3-yl)-imino)-erythromycin A] | 4 µg/mL (≈ 4.68 µM) | <0.063 µg/mL | – | – | – | – | – | <0.063 µg/mL | 0.5 µg/mL (≈ 0.585 µM) |
| CC[C@H]1OC(=O)[C@H](C)C(=O)[C@H](C)[C@@H](O[C@@H]2O[C@H](C)C[C@H](N(C)C)[C@H]2O)[C@](C)(OC)C[C@@H](C)C(=O)[C@H](C)[C@H]2N(CC3(C)CN(C(=O)c4cccc5ncccc45)C3)C(=O)O[C@]12C.O=CO [6.14] | – | – | – | 0.25 µg/mL | 8 µg/mL | >64.00 µg/mL | <0.06 µg/mL | – | – |
| CC[C@H]1OC(=O)[C@H](C)C(=O)[C@H](C)[C@@H](O[C@@H]2O[C@H](C)C[C@H](N(C)C)[C@H]2O)[C@](C)(OC)C[C@@H](C)C(=O)[C@H](C)[C@H]2N(CC3(C)CN(C(=O)c4cccc(-n5cccn5)n4)C3)C(=O)O[C@]12C.O=CO [6.21] | – | – | – | 0.5 µg/mL | 16 µg/mL | >64.00 µg/mL | <0.06 µg/mL | – | – |
| CCC1OC(=O)C(C)C(=O)C(C)C(OC2OC(C)CC(N(C)C)C2O)C(C)(OC)CC(C)C(=O)C(C)C2N(C3CN(Cc4ccn(-c5ccccn5)n4)C3)C(=O)OC12C (centres unmarked) [Example 1.10] | >64.00 µg/mL | <0.06 µg/mL | – | – | – | – | – | 0.12 µg/mL (≈ 0.145 µM) | <0.06 µg/mL |
